Source: paper PMC5037267, “Crystal Structure of a Group I Energy Coupling Factor Vitamin Transporter S Component in Complex with Its Cognate Substrate” (Cell Chemical Biology, 2016)
Numbering of substitutions follows the chain as printed.

What was measured:
Type in all cases: binding
YkoE [1] = target: T1, YkoE (Bacillus subtilis, UniProt O34738); test: CD thermal melting at […] nm; settings: YkoE from M9 medium plus excess thiamine; reference without added thiamine 68 °C; pH 7.1, 200 mM NaCl; 1 °C/min
T1 construct: isolated S component without YkoC/YkoD; N-terminal His6 tag cut by TEV; E. coli Lemo21; n-decyl-beta-D-maltopyranoside; four N-terminal residues not seen in crystal
T1 sequence (O34738 1-199 limits assumed): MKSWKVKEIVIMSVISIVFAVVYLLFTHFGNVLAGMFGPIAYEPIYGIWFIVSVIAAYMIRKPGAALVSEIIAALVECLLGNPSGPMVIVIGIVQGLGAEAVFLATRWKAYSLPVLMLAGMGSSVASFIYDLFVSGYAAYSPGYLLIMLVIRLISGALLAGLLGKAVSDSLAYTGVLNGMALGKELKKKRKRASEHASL

YkoE [2] = target: T2, YkoE (Bacillus subtilis, UniProt O34738, Q95A); test: intrinsic Trp fluorescence quenching titration
T2 construct: isolated S component without YkoC/YkoD; N-terminal His6 tag cut by TEV; E. coli Lemo21; n-decyl-beta-D-maltopyranoside; four N-terminal residues not seen in crystal
T2 sequence (O34738 1-199 Q95A limits assumed): T1 sequence (O34738 1-199 limits assumed) with Q95A
Text: intrinsic Trp fluorescence quenching titration on YkoE | with the Q95A mutation showing the largest effect on affinity

YkoE [3] = target: T1, YkoE; test: intrinsic Trp fluorescence quenching titration
YkoE [4] = target: T3, YkoE (Bacillus subtilis, UniProt O34738, E77A); test: intrinsic Trp fluorescence quenching titration
T3 construct: isolated S component without YkoC/YkoD; N-terminal His6 tag cut by TEV; E. coli Lemo21; n-decyl-beta-D-maltopyranoside; four N-terminal residues not seen in crystal
T3 sequence (O34738 1-199 E77A limits assumed): T1 sequence (O34738 1-199 limits assumed) with E77A

YkoE [5] = target: T4, YkoE (Bacillus subtilis, UniProt O34738, D131A); test: intrinsic Trp fluorescence quenching titration
T4 construct: isolated S component without YkoC/YkoD; N-terminal His6 tag cut by TEV; E. coli Lemo21; n-decyl-beta-D-maltopyranoside; four N-terminal residues not seen in crystal
T4 sequence (O34738 1-199 D131A limits assumed): T1 sequence (O34738 1-199 limits assumed) with D131A

YkoE [6] = target: T5, YkoE (Bacillus subtilis, UniProt O34738, Y46A); test: intrinsic Trp fluorescence quenching titration
T5 construct: isolated S component without YkoC/YkoD; N-terminal His6 tag cut by TEV; E. coli Lemo21; n-decyl-beta-D-maltopyranoside; four N-terminal residues not seen in crystal
T5 sequence (O34738 1-199 Y46A limits assumed): T1 sequence (O34738 1-199 limits assumed) with Y46A

## Cc1ncc(C[n+]2csc(CCO)c2C)c(N)n1 [thiamine]
YkoE [1]
  Tm: 75 °C
YkoE [2]
  Kd: 26.9 ± 1.6 nM
YkoE [3]
  Kd: ~4.5 nM
YkoE [4]
  Kd: 9.3 ± 0.6 nM
YkoE [5]
  Kd: 9.4 ± 0.9 nM
YkoE [6]
  Kd: 10.3 ± 0.8 nM
